Like-named read-outs stand apart in the source and are kept apart here.
Columns and labels:
Type in all cases: biochemical
[1] = target: T1, human recombinant acetylcholinesterase (hrAChE) (Homo sapiens, UniProt P22303); assay: hrAChE inhibition, Ellman method (screening and IC50); conditions: for hrAChE inhibition (screening, in words): screening at 1 and 10 µM; for IC50: mean ± standard error of the mean, triplicate determinations; for inhibition at 10 µM: read-out: hrAChE inhibition
T1 construct: made in house; host or cells: Hek293 derivatives (transient transfection, pcDNA3.4), collected from culture supernatant
T1 sequence (P22303 32-614): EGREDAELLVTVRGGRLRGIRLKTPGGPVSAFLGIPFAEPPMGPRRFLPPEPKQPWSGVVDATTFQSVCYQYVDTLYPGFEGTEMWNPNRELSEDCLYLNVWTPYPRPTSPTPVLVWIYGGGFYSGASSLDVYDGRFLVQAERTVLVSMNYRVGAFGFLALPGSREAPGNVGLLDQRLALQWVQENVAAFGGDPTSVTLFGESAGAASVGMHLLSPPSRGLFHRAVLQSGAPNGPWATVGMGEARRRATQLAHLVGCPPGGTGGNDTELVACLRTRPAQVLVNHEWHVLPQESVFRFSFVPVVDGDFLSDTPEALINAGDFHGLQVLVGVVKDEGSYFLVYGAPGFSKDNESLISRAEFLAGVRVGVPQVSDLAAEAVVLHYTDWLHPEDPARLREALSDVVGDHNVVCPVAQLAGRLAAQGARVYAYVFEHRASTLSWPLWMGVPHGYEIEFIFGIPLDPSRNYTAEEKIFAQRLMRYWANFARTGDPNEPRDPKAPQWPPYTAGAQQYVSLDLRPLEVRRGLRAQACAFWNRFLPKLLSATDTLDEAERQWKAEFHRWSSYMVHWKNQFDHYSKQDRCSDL
Procedure: (§1) The hrAChE and hrBuChE were prepared as recombinant proteins at the University of Hradec Kralove. For their production, the mammalian expression system was used. Briefly, the DNA sequence encoding human AChE and BuChE was obtained from UniProtKB Server (www.uniprot.org, accession numbers: P22303 and P06276) and de novo synthesized as GeneArt Strings DNA fragments by GeneArt Gene Synthesis Service (Thermo Fisher Scientific, Pardubice, Czech Republic). The DNA fragments were PCR-amplified using gene-specific primers, adding the DNA sequence for C-terminal 6× His-tag. The amplicons were inserted into the mammalian pcDNA3.4 vector by TOPO cloning technology, and the final DNA constructs were verified by Sanger sequencing (ABI PRISM 3130xl). For protein expression, the DNA constructs were transiently transfected into Hek293 derivatives. Recombinant proteins were collected from culture supernatant 6 days later and stored at −80 °C for further purification.
(§2) The hrAChE and hrBuChE were purified using a NGC Medium-Pressure Chromatography System (Bio-Rad, USA). The total volume of 6–8 mL of medium containing secreted protein was desalted using 5 mL HiTrap Desalting column (GE Healthcare, Prague, Czech Republic) equilibrated with buffer A (20 mM sodium phosphate buffer, 150 mM NaCl, 15 mM imidazole, and 20% glycerol; pH 7.4). Acquired supernatant was loaded onto a 1 mL HisTrap FF column (GE Healthcare, Prague, Czech Republic) equilibrated with buffer A. Captured proteins were eluted with buffer B (20 mM sodium phosphate buffer, 150 mM NaCl, 500 mM imidazole, and 20% glycerol; pH 7.4). Imidazole was subsequently removed by repeated centrifugation in Amicon Ultra-4 (Ultracel-10K) tube (Merck Millipore). Protein concentration was determined by linearized Bradford method adapted for 96-well plate.
(§3) The catalytic activity of enzymes was determined by standard Ellman method adapted for 96-well plates. […]. The mixture was pre-incubated at 37 °C for 15 min, and subsequently substrate acetylthiocholine iodide (ATChI) or butyrylthiocholine iodide (BuTChI) was added to the final concentration of 1000 µM. The final volume of reaction was 100 µL. The product formed during the reaction 5-thio-2-nitrobenzoic acid (TNB) was determined by following its absorbance at 436 nm. The catalytic activity was evaluated as amount of product (%) formed by enzyme after 10 min of incubation at 37 °C. IC50 values of individual compounds were determined by non-linear regression using GraphPad Prism 7.

[2] = target: T2, human recombinant butyrylcholinesterase (hrBuChE) (Homo sapiens, UniProt P06276); assay: hrBuChE inhibition, Ellman method (screening and IC50); conditions: for inhibition at 10 µM: at 10 µM concentration; for IC50: mean ± standard error of the mean, triplicate determinations
T2 construct: made in house; host or cells: Hek293 derivatives (transient transfection, pcDNA3.4), collected from culture supernatant
T2 sequence (P06276 29-602): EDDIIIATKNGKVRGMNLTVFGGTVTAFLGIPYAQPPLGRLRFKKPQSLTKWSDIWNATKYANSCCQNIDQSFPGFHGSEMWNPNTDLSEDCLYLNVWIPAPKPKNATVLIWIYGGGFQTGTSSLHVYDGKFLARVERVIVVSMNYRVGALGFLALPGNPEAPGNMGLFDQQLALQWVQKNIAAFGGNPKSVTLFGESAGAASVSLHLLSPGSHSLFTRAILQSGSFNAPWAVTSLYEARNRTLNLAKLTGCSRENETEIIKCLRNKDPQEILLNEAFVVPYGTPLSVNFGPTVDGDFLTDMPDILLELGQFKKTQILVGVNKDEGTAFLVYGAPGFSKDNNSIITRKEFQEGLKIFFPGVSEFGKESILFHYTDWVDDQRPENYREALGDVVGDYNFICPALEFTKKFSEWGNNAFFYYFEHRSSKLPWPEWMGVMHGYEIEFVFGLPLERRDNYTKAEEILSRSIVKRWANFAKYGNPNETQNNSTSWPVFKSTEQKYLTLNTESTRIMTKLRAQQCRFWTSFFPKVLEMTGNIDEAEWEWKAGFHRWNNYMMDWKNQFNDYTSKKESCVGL
Procedure: as §1, §2, §3

hrAChE = target: T3, hrAChE (Homo sapiens, UniProt P22303); assay: Inhibition kinetics of hrAChE (Lineweaver-Burk)
T3 construct: made in house; host or cells: Hek293 derivatives (transient transfection, pcDNA3.4), collected from culture supernatant
T3 sequence (P22303 32-614): as the sequence (P22303 32-614) above
Procedure: Compound with the highest inhibition potential against hrAChE was further analysed regarding its inhibition kinetics parameters (inhibition mechanism and inhibitory constant). […]. Inhibition mechanism and kinetic constant were determined by non-linear regression and double reciprocal method by Lineweaver-Burk using GraphPad Prism 7.

Compound | hrAChE inhibition (screening, in words) [1] | Selectivity Index IC50 (hrBuChE)/IC50 (hrAChE) [1] | IC50 [1] | inhibition at 10 µM [1] | inhibition at 10 µM [2] | IC50 [2] | type of hrAChE inhibition (hrAChE; kinetic experiments) | Ki (hrAChE; non-competitive inhibition, ATChI 25-2000 µM) | inhibition at 10 µM ([1]; at 10 µM concentration)
CN1CCN(CCCCOc2ccc3c(c2)NC(=O)CC3)CC1 [DQN3, 7-[4-(4-Methylpiperazin-1-yl)butoxy]-3,4-dihydroquinolin-2(1H)-one] | low inhibition percentage |  |  |  |  |  |  |  | 
CC(C)N1CCN(CCCCOc2ccc3c(c2)NC(=O)CC3)CC1 [DQN7, 7-[4-(4-Isopropylpiperazin-1-yl)butoxy]-3,4-dihydroquinolin-2(1H)-one] |  | 11 | 1580 ± 150 nM | 88 to 95% | 45 to 65% | 16700 ± 460 nM |  |  | 
CN1CCN(CCCCOc2ccc3ccc(=O)[nH]c3c2)CC1 [QN4, 7-[4-(4-Methylpiperazin-1-yl)butoxy]quinolin-2(1H)-one] | low inhibition percentage |  |  |  |  |  |  |  | 
CN1CCN(CCCCCOc2ccc3ccc(=O)[nH]c3c2)CC1 [QN5, 7-[5-(4-Methylpiperazin-1-yl)pentyloxy]quinolin-2(1H)-one] | low inhibition percentage |  |  |  |  |  |  |  | 
CC(C)N1CCN(CCCCOc2ccc3ccc(=O)[nH]c3c2)CC1 [QN8, 7-[4-(4-Isopropylpiperazin-1-yl)butoxy]quinolin-2(1H)-one] |  | 44 | 290 ± 20 nM |  | 45 to 65% | 12700 ± 450 nM | non-competitive | 79 nM | 88 to 95%
CC(C)N1CCN(CCCCCOc2ccc3ccc(=O)[nH]c3c2)CC1 [QN9, 7-[5-(4-Isopropylpiperazin-1-yl)pentyloxy]quinolin-2(1H)-one] |  | 7 | 960 ± 40 nM |  | 45 to 65% | 6700 ± 320 nM |  |  | 88 to 95%
